In brackets after ≈: the same amount, converted by molar mass. Entries after “also recorded” stand apart in the source; their conditions may differ.
Legend:
[1] = tested on: in vitro model of the blood–brain barrier based on human induced pluripotent stem cell-derived microvascular endothelial cells, astrocytes, and pericytes; test: In vitro BBB permeability test (iCell Blood-Brain Barrier Kit, tricellular model); type: in vitro ADME; settings: Pe of nanoemulsion vs solution
Excerpt: The iCell® Blood-Brain Barrier Kit (FUJIFILM Cellular Dynamics, Inc., Madison, WI, USA) contained the following: iCell Astrocytes, iCell BMEC (Brain Microvascular Enothelial Cells), iCell Pericytes, iCell Astrocytes & iCell Pericytes Medium, iCell BMEC Maintenance Medium, and iCell Plating Supplement 500×. […]
The iCell® Blood-Brain Barrier Kit (FUJIFILM Cellular Dynamics, Madison, WI, USA) contained astrocytes, pericytes, and brain microvascular endothelial cells. […] For comparison, the contribution of the carrier itself was evaluated using a GL-II-73 solution in ultrapure water.
The transendothelial electrical resistance (TEER) parameter was used to verify the integrity of the barrier. […] The measured TEER values were corrected with TEER values from wells with empty filters and the medium. The final TEER values (Ω × cm^2) were calculated by adjusting the corrected TEER values to the filter surface. […] For this purpose, 100 µL was taken from the basolateral side (containing 1 mL iCell Maintenance Medium) to be analyzed by LC/MS-MS. […]
The Pe parameter (permeability coefficient; cm/min) was calculated as described earlier [19, 20] and used to evaluate the rate and the effectiveness of GL-II-73 transport through the BBB. […]
The Pe value was determined by dividing the Pse values by the surface area of the membrane of the insert (cm^2).

[2] = Solubility of GL-II-73 in various media, shake flask method; type: physicochemical; settings: thermodynamic from solid
Experimental: The solubility of GL-II-73 was investigated in various media using the shake flask method. In brief, GL-II-73 was added in excess and mixed overnight on the vortex, followed by centrifugation to remove any excess of undissolved drug. The supernatants were then diluted in methanol and GL-II-73 content was determined by the LC/MS-MS method.
A liquid chromatographic system, the Accela 1000 (Thermo Fisher Scientific, San Jose, CA, USA), which includes a quaternary pump and an autosampler, was used for chromatographic analyses. All runs were performed with an XTERRA® MS C18 column (150 mm × 2.1 mm, 3.5 µm; Waters, Dublin, Ireland) maintained at 25 °C. Samples were stored in the autosampler temperature-controlled compartment at 8 °C. Isocratic elution was performed with a mixture of acetonitrile and 0.1% aqueous formic acid (60:40, v/v) at a flow rate of 300 µL/min. The total analysis time was 4.5 min. Mass spectrometric analyses were performed using a TSQ Quantum Access MAX (Thermo Fisher Scientific, Waltham, MA, USA) triple-quadrupole spectrometer equipped with a heated electrospray ionization (HESI) source. Operating conditions of the MS were optimized as follows: the spray voltage was set to 4000 V, with a skimmer offset of 0 V; the evaporator and capillary temperatures were set to 350 °C and 300 °C, respectively; nitrogen was used as both the nebulizer and auxiliary gas, with flow rates of 50 and 10 arbitrary units, respectively; and the collision gas pressure in q2 was maintained at 1.4 mTorr of argon. Data acquisition was performed with Selected Reaction Monitoring (SRM) in positive scan mode. The [M + H]^+ transitions m/z of SRM were 387.2 → 342.2 (CE 21 V), 373.1 → 314.0 (CE 29 V), and 347.0 → 302.0 (CE 28 V) for GL-II-73, MP-III-022, and SHI-I-048A (as internal standard), respectively. The Thermo Xcalibur 2.1 software was used for data acquisition.

[3] = In vivo neuropharmacokinetic study, plasma and brain, intraperitoneal administration; design: species or system Sprague Dawley rats; settings: rat; for availability in the brain (AUC0–36) higher after nanoemulsion compared to the solution: intraperitoneal administration; for AUC 0-36: brain
Experimental: The neuropharmacokinetic study was performed after intraperitoneal administration of the optimized nanoemulsion (NE4) or a 2 mg/mL GL-II-73 solution (solvent consisting of 14% (w/v) propylene glycol and 1% (w/v) polysorbate 80 in ultrapure water). Female Sprague Dawley rats, approximately two months old and weighing 160–200 g, were housed four per cage. The animal room was kept at a temperature of 22 ± 1 °C and a relative humidity of 40–70%. The alternation of light and darkness took place in a 12 h rhythm (light at 6:00 a.m.) with an illumination of 120 lx.
The test animals were divided into two groups of 27 rats each (3 animals per time point). One group received the GL-II-73 solution, the other group the GL-II-73 nanoemulsion, each at a dose of 10 mg/kg. At predefined intervals (5 min, 15 min, 30 min, 1 h, 2 h, 4 h, 8 h, 16 h, and 36 h), the animals were anesthetized with ketamine hydrochloride 90 mg/kg (Ketamidor, Richter Pharma AG, Vienna, Austria) and blood and brain samples were taken. Blood was collected by cardiac puncture with heparinized syringes and centrifuged at 1000× g for 10 min (MiniSpin® plus centrifuge, Eppendorf, Hamburg, Germany) to separate plasma. The isolated brains were weighed and homogenized in 1 mL methanol using an ultrasonic probe. The homogenized brain samples were subsequently centrifuged at 3400× g for 20 min to collect the supernatants. Plasma and the supernatants of the brain homogenates were further purified by solid phase extraction using Oasis HLB cartridges (Waters Corporation, Milford, MA, USA). The cartridges were preconditioned with methanol and then with water prior to application of the sample and internal standard. […] The concentration of GL-II-73 and its metabolite MP-III-022 was quantified in the eluates by liquid chromatography–tandem mass spectrometry (LC-MS/MS).

Compound	Permeability of GL-II-73 through the BBB, nanoemulsion relative to solution [1]	solubility ([2]; MCT, oil or lipid) [mg/mL]	solubility ([2]; aqueous buffer, Phosphate buffer (pH 7.4)) [mg/mL]	solubility ([2]; benzyl alcohol, organic solvent or mixture) [mg/mL]	solubility ([2]; castor oil, oil or lipid) [mg/mL]	solubility ([2]; fish oil, oil or lipid) [mg/mL]	solubility ([2]; isopropanol, organic solvent or mixture) [mg/mL]	solubility ([2]; methanol, organic solvent or mixture) [mg/mL]	solubility ([2]; simulated gastric fluid, 0.1 M HCl (pH 1.2)) [mg/mL]	solubility ([2]; soybean oil, oil or lipid) [mg/mL]	solubility ([2]; Water (pH 5.2)) [mg/mL]	availability in the brain (AUC0–36) higher after nanoemulsion compared to the solution [3] [%]	sum of brain AUC0-36 values for the parent molecule and its metabolite, nanoformulation compared to the solution ([3]; systemic administration)	AUC 0-36 ([3]; metabolite MP-III-022 after 10 mg/kg GL-II-73 nanoemulsion NE4 i.p.) [ng·h/g]	AUC 0-36 ([3]; metabolite MP-III-022 after 10 mg/kg GL-II-73 solution i.p.) [ng·h/g]
C#Cc1ccc2c(c1)C(c1ccccc1F)=N[C@H](C)c1c(C(=O)N(C)C)ncn1-2 [GL-II-73]	twice as high; also recorded: more than twofold higher	4.49 ± 0.148 (≈ 11.6 mM)	0.951 ± 0.0414 (≈ 2.46 mM)	> 534	2.82 ± 0.184 (≈ 7.3 mM)	2.4 ± 0.331 (≈ 6.2 mM)	131 (≈ 339 mM)	> 1470	5.37 ± 0.195 (≈ 13.9 mM)	3.06 ± 0.137 (≈ 7.91 mM)	1 ± 0.0399 (≈ 2.59 mM)	24	one-third higher		
C#Cc1ccc2c(c1)C(c1ccccc1F)=N[C@H](C)c1c(C(=O)NC)ncn1-2 [MP-III-022]												61		167.36 ± 70.56	103.75 ± 2.05
